Values quoted from earlier work in patent US20250255800A1, “DETERGENT COMPOSITIONS FOR WASHING URUSHIOL AND METHODS OF TREATING URUSHIOL INDUCED CONTACT DERMATITIS” (THE WILLIAM M. YARBROUGH FOUNDATION, priority 2020, published 2025).

Experiments:
[1] = in vitro and in vivo assays
aquatic organisms = conditions: EPA statement / GHS Hazard Statement H411

In the case of nonylphenol [nonylphenol (NP)], the estrogenic properties [1] is listed as “exhibit estrogenic properties” and the “toxicity to aquatic life” value (aquatic organisms) is listed as “extremely toxic to aquatic organisms”.
For nonoxynol 9 [nonoxynol-9], the “toxicity to aquatic life” value (aquatic organisms) is given as “toxic to aquatic life with long lasting effects”.
